Data set [1] can be described thus: In vivo drug metabolism in human assessed as CYP2C8-mediated glucuronide conjugate formation in urine by LC-MS/MS analysis. Format: ADME, organism-based.
The target of data set [2] is T1, Cytochrome P450 2C8 (Homo sapiens, UniProt P10632).
T1 sequence (P10632 whole entry): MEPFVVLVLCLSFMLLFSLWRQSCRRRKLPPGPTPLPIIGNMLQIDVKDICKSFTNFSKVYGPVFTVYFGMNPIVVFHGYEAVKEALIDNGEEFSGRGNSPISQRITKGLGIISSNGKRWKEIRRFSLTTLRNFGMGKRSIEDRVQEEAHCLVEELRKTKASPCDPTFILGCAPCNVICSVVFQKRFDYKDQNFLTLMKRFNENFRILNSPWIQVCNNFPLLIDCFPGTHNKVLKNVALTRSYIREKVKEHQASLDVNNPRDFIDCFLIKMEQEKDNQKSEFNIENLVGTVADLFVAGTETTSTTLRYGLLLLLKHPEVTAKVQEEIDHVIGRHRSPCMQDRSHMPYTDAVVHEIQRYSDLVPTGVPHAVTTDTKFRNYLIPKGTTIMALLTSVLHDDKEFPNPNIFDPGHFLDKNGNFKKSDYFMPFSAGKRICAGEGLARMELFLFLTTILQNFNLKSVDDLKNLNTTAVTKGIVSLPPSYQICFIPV
Nature of the data set: Reversible inhibition of CYP2C8 in human liver microsomes after 5 mins by LC-MS/MS analysis. Format: ADME.

A further data set has as its target T2, Cytochrome P450 1A2 (Homo sapiens, UniProt P05177).
T2 sequence (P05177 whole entry): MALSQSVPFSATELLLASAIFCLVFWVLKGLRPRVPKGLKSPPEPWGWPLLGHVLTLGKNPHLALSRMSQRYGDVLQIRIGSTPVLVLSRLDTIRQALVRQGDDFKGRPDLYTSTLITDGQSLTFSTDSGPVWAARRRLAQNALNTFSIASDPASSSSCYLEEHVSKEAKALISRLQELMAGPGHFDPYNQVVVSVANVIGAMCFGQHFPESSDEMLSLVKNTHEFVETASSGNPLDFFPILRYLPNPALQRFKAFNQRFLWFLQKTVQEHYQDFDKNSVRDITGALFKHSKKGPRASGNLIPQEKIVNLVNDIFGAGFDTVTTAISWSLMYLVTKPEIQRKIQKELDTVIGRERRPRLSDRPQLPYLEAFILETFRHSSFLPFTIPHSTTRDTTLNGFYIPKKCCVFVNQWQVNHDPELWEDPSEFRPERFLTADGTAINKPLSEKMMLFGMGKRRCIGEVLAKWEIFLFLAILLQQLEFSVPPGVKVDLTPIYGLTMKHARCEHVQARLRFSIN
Put plainly: (§1) Inactivation of CYP1A2 in human liver microsomes after 5 mins by LC-MS/MS analysis. Format: ADME. Background: Liver microsomes are a subcellular fraction often used to study metabolism.

In the next data set the target is T3, CYP1A2 (Homo sapiens, UniProt P05177).
T3 sequence (P05177 whole entry): T2 sequence (P05177 whole entry)
The description is as §1. Format: ADME. The conditions noted are these: human, liver microsomes.

Data set [3] addresses T1, Cytochrome P450 2C8. Nature of the data set: (§2) Time dependent inhibition of CYP2C8 in human liver microsomes after 5 mins by LC-MS/MS analysis. Format: ADME.
Data set [4] addresses T4, CYP2C8 (Homo sapiens, UniProt P10632).
T4 sequence (P10632 whole entry): T1 sequence (P10632 whole entry)
The data set is described as §2. Format: ADME. The conditions noted are these: human, liver microsomes.

Data set [5] deals with T1, Cytochrome P450 2C8. Put plainly: Inhibition of CYP2C8 in human liver microsomes using paclitaxel as substrate preincubated for 2 to 40 mins followed by NADPH-generating system addition measured after 2 mins. Format: ADME.
The target in data set [6] is T1, Cytochrome P450 2C8. Nature of the data set: Inhibition of CYP2C8 in human liver microsomes using paclitaxel as substrate after 5 mins. Format: ADME.
Data set [7] has as its system Blood. Nature of the data set: In vivo drug metabolism in human assessed as 3-(2-(1-(2-(5-bromopyrimidin-2-yl)-3-cyclopentyl-1-methyl-1H-indole-6-carboxamido)cyclobutyl)-1-methyl-1H-benzo[d]imidazol-6-yl)propanoic acid metabolite formation in blood at 800 mg,po administered as single dose measured up to 12 hrs by radiolabled assay. Format: ADME, organism-based.
The subject of data set [8] is Blood. Nature of the data set: In vivo drug metabolism in human assessed as UGT-mediated deleobuvir acyl glucuronide metabolite formation in blood at 800 mg,po administered as single dose measured up to 12 hrs. Format: ADME, organism-based.
The nature of data set [9]: In vivo drug metabolism in human assessed as CYP2C8-mediated gemfibrozil-1-O-beta-glucuronide-2'-benzyl alcohol metabolite levels in urine at 450 mg, po after 24 hrs by HPLC analysis. Format: ADME, organism-based.
The test system of data set [10] is Homo sapiens. Put plainly: In vivo inhibition of CYP2C8 in human assessed as reduction in gemfibrozil-1-O-glucuronide metabolite formation in plasma at 30 mg, po administered as single dose measured after 10 hrs by LC-MS/MS analysis.
The nature of data set [11]: In vivo drug metabolism in human assessed as CYP2C8-mediated gemfibrozil-1-O-beta-glucuronide-5'-benzyl alcohol metabolite levels in urine at 450 mg, po after 24 hrs by HPLC analysis. Format: ADME, organism-based.
The nature of data set [12]: In vivo drug metabolism in human assessed as UGT2B7-mediated gemfibrozil-1-O-beta-glucuronide metabolite levels in urine at 450 mg, po after 24 hrs by HPLC analysis. Format: ADME, organism-based.
Data set [13] addresses T1, Cytochrome P450 2C8. Put plainly: (§3) Inhibition of CYP2C8 in human liver microsomes preincubated for 30 mins followed by substrate addition measured after 2 mins. Format: ADME.
Data set [14] deals with T4, CYP2C8. Described as §3. Format: ADME. The conditions noted are these: human, liver microsomes.
A short description of data set [15]: In vivo drug metabolism in human assessed as UGT2B7-mediated 4'-hydroxydiclofinac acyl glucuronide level in urine. Format: ADME, organism-based.
Data set [16] relates to Homo sapiens. Put plainly: In vivo drug metabolism in human assessed as CYP2C9-mediated 4'-hydroxydiclofinac metabolite formation. Format: ADME, organism-based.
Substrate in data set [17]: C[C@]12CC[C@@H]3c4ccc(O)cc4CC[C@H]3[C@@H]1CC[C@@H]2O[C@@H]1O[C@H](C(=O)O)[C@@H](O)[C@H](O)[C@H]1O
Put plainly: Drug metabolism in human liver microsomes assessed as CYP2C8-mediated glucuronide conjugate formation per nmol of protein after 30 mins by HPLC-MS/MS analysis. Format: ADME.

In the case of `CC(C)Cc1ccc(C(C)C(=O)O)cc1` (stereo not given) [IBUPROFEN], in [1], the Drug metabolism was 10 to 15 %ID.

For `Cn1c(C2(NC(=O)c3ccc4c(C5CCCC5)c(-c5ncc(Br)cn5)n(C)c4c3)CCC2)nc2ccc(/C=C/C(=O)O[C@@H]3O[C@H](C(=O)O)[C@@H](O)[C@H](O)[C@H]3O)cc21`, the Ki came to 0.022 µM on Cytochrome P450 2C8 [2], 54.6 µM at Cytochrome P450 1A2 and 0.0521 µM at Cytochrome P450 2C8 [3]. In addition, the kinact at 5 min on CYP1A2 was 0.000733 s⁻¹; on CYP2C8 [4] it was 0.000868 s⁻¹.

As for `Cc1ccc(C)c(OCCCC(C)(C)C(=O)O[C@@H]2O[C@H](C(=O)O)[C@@H](O)[C@H](O)[C@H]2O)c1`, the Ki on Cytochrome P450 2C8 [5] came to 52 µM. The molecule further returned an IC50 on Cytochrome P450 2C8 [6] of 24 µM.

In the case of `Cn1c(C2(NC(=O)c3ccc4c(C5CCCC5)c(-c5ncc(Br)cn5)n(C)c4c3)CCC2)nc2ccc(/C=C/C(=O)O)cc21` [DELEOBUVIR], the results for the Drug metabolism in the data set with Blood [7] and with Blood [8] were 15 %ID and 20 %ID, respectively.

With `Cc1ccc(C)c(OCCCC(C)(C)C(=O)O)c1` [GEMFIBROZIL], the Drug metabolism in data set [9] worked out at 20 %ID; in data set [11], 20 %ID; in data set [12], 32 %ID. The “inhibition (INH)” value in the data set on Homo sapiens [10] was determined as 50%.

On Cytochrome P450 2C8 [13], `O=C(O)[C@H]1O[C@@H](OC(=O)[C@H](c2ccccc2Cl)N2CCc3sccc3C2)[C@H](O)[C@@H](O)[C@@H]1O` registered a Ki of 9.9 µM. Besides, the kinact at 2 min on CYP2C8 [14] is 0.000783 s⁻¹.

As for `O=C(O)Cc1ccccc1Nc1c(Cl)cccc1Cl` [DICLOFENAC], the Drug metabolism was 10 to 20 %ID in data set [15] and 30 %ID in the data set on Homo sapiens [16].

B1: Cytochrome P450 2C8 (Homo sapiens) (protein)
chain: T1 sequence (P10632 whole entry)
For the molecule B1, in data set [17], the Km stood at 88 µM and the Vmax is 0.00186 µmol/min.

Usually kinact stands for the rate constant of inactivation at saturating inhibitor. In general, IC50 refers to the midpoint of a concentration-inhibition curve. Low values mean greater potency in that assay, high ones weaker potency in that assay. One may read the Km as the substrate concentration at which the rate is half of its maximum. As usually defined, the Vmax is the rate approached at saturating substrate.

Source of the values: ChEMBL document CHEMBL4017488, “Glucuronides as Potential Anionic Substrates of Human Cytochrome P450 2C8 (CYP2C8)” (J Med Chem, 2017).
